Assay results: US3949075A, “Anti-microbial compounds of 2', 4' substituted anilides of substituted nitrosalicylic acid for quadruped animals” (Ferro Corporation, priority 1974, dated 1976)
Like-named read-outs stand apart in the source and are kept apart here.

Legend:
Haemonchus contortus = experiment: Percent of Haemonchus destroyed or expelled in infected sheep (egg count after treatment); assay type: in vivo, Haemonchus contortus (in sheep); conditions: for Effectiveness at 15 mg/kg against Haemonchus: Table VI; for effective in killing or expelling Haemonchus: dose not given; for Haemonchus (2 mg/kg), percent of parasites destroyed or expelled / Haemonchus (15 mg/kg), percent of parasites destroyed or expelled / Haemonchus (5 mg/kg), percent of parasites destroyed or expelled: into rumen, Table 1
Experimental: Two groups of sheep were used in the tests. One group was used as a non-medicated control, while the other group was treated with the compound under investigation. Helminth-free young lambs were infected with about 10,000 filariform larvae of Haemonchus contortus. In three weeks when the infection became apparent, egg counts were made to determine the density of the worm burden.
The egg count was carried out using the following modified Stoll method. Three grams of sheep feces were taken rectally from each animal and placed in a Stoll flask. To each flask, tap water was added to the top line. The fecal pellets were too hard to break down, the flasks were closed with rubber stoppers and kept in the refrigerator for several hours. The flasks were thoroughly shaken and a 1 ml. sample was drawn from the middle using a wide mouth pipette. This 1 ml. sample was transferred to an 8 ml. plastic tube, to which enough saturated sodium chloride solution was added to reach the rim. The tubes were then centrifuged for 10 minutes at 1500 r.p.m. Then sodium chloride solution was added with a medicine dropper forming a concave miniscus. A cover glass was carefully added and the tubes were kept in a refrigerator for ten to twenty minutes. During that period, the nematode ova flowed upward and adhered to the bottom of the cover glass slip. At the end of the 20-minute period, the cover slip was carefully detached from the miniscus and transferred to a microscopic slide. The ova were then counted under a microscope equipped with 10X ocular and 10X objective lens. Each ovum under the microscope represented 20 ova in the sample.
Animals with sufficiently high egg counts were taken out of the pool and housed in experimental pens. Since the salicylanilides of the present invention are water insoluble, the compounds were first ground using a mortar and pestle and then were placed in a carboxymethyl cellulose solution. The particles were further micronized ultrasonically. The compound was then administered to two or three animals by Oesophageal gavage. Control, untreated animals, received only the carboxymethyl cellulose solution in a similar manner. On the sixth and seventh day after treatment, fecal pellets were taken from the rectum of the control as well as the treated animals and egg counts were made.
(§1) The results of tests on sheep in a manner described, supra, using compounds of the present invention are given in Table 1, Examples 5 through 13. The numbers in the column headed "Haemonchus (15 mg/kg)" refer to the percent of parasites destroyed or expelled when the indicated compound was introduced into the rumen of sheep at a dosage of 15 milligrams per kilogram of body weight. The values under "Tolerance (mg/kg)" refer to the highest test dosage in the milligrams of anthelmintic per kilogram of body weight at which the sheep developed no toxic symptoms. "Tol." is an abbreviation for "tolerated". The symbols R1 and R2 refer to those of Formula I in these and other following examples.
(§2) The data of the tables were generated using procedures previously described. The compounds tested are disubstituted and, except for Example 50 which is dibromo, are dichloro. Where the position for the substituents is other than 2' and 4', it is indicated. Under the indicated microorganisms, the values given in this and the following tables, should be read as: percentage of microorganism killed/dose in milligrams per kilogram of body weight. Under "Tolerance", the term "Tol." means "tolerated", "Tox." means "toxic", and "Sym." means "symptoms of toxic reaction", all at the dosage value which follows. It will be appreciated that there is no sharp toxicity end point in determining toxicity to living sheep.

Fasciola hepatica = experiment: Test for activity against liver flukes, Fasciola hepatica, in infected sheep; assay type: in vivo; conditions: for inhibition in vivo at 1 mg/kg: Tables VIII and X
Experimental: (§3) Test for activity against liver flukes were conducted as follows:
(§4) Eggs of Fasciola hepatica were collected from the bile of donor sheep. The eggs were embryonated and snails were infected (the genus Lymnaea serves as intermediate host) to produce Metacercariae which are the infective forms for sheep. Each sheep was infected with 250 metacercariae intraruminally. When the infection became patent in ca. 80 days, egg counts were carried out to determine the degree of worm burden. The liver was processed to recover F. hepatica in the untreated and treated sheep.
as §2

[1] = Tolerance / toxicity in sheep; assay type: in vivo; design: key to Tolerance at 100 mg/kg / Tolerance at 50 mg/kg: "toxic" refers to death of sheep resulting from the use of the indicated compound at the indicated dosage; key to Tolerance: Tol.: tolerated; Tox.: toxic; Sym.: symptoms of toxic reaction; conditions: in vivo, Table 1, read-out: Tolerance, highest test dosage at which the sheep developed no toxic symptoms
Experimental: as §1
(§5) The importance of the 2',4' substitution on the anilide moiety of Formula I is illustrated by the case of the dichloro substitution as summarized in Table III. […] This has been mentioned briefly hereinabove. As used herein, "toxic" refers to death of sheep resulting from the use of the indicated compound at the indicated dosage.
as §2

sheep = experiment: Tolerance / toxicity in sheep; assay type: in vivo; design: key to Tolerance at 100 mg/kg / Tolerance at 50 mg/kg: "toxic" refers to death of sheep resulting from the use of the indicated compound at the indicated dosage; key to Tolerance: Tol.: tolerated; Tox.: toxic; Sym.: symptoms of toxic reaction; conditions: for Tolerance at 50 mg/kg / Tolerance at 100 mg/kg: Tables III and IV
Experimental: as §1, §5, §2

[2] = test system: liver flukes of the genus Fasciola; experiment: Utility against liver flukes of the genus Fasciola in sheep (oral); assay type: in vivo; conditions: for effect against (mature) liver flukes: oral, 5 mg/kg, within three days; for effect against liver flukes: 15 mg/kg
Experimental: as §3, §4
The compounds of this invention also have utility against liver flukes.

[3] = test system: Haemonchus and Fasciola hepatica; experiment: Dual activity against Haemonchus and Fasciola in sheep and therapeutic ratio; assay type: in vivo; conditions: sheep; for dual activity relative to other isomers, in words: Table IX, listed as methyl 2'; for overall activity ranking, in words: Table X
[4] = Haemonchus contortus, iv, sheep, 15 mg/kg, Tables III and IV, read-out: Effectiveness (%) at 15 mg/kg
[5] = Haemonchus contortus, sheep, Tables VIII-XI, read-out: Haemonchus, percentage of microorganism killed
[6] = Haemonchus contortus, sheep, 5 mg/kg, Tables VIII-XI, read-out: Haemonchus, percentage of microorganism killed
[7] = sheep, 5 mg/kg, Tables III and IV
[8] = Fasciola hepatica, read-out: Fasciola hepatica, percentage of microorganism killed
[9] = Fasciola hepatica, sheep, read-out: Fasciola hepatica, percentage of microorganism killed
[10] = Fasciola hepatica, sheep, 2 mg/kg, Tables VIII-XI, read-out: Fasciola hepatica, percentage of microorganism killed
[11] = Haemonchus contortus, sheep, 15 mg/kg, Tables VIII-XI, read-out: Haemonchus, percentage of microorganism killed
[12] = Fasciola hepatica, sheep, 5 mg/kg, Tables VIII-XI, read-out: Fasciola hepatica, percentage of microorganism killed
[13] = Fasciola hepatica, sheep, Tables VIII-XI, read-out: Fasciola hepatica, percentage of microorganism killed

Row | SMILES | inhibition in vivo at 15 mg/kg (Haemonchus contortus; [4]) | inhibition in vivo at 2 mg/kg (Haemonchus contortus; [5]) | inhibition in vivo at 5 mg/kg (Haemonchus contortus; [6]) | Effectiveness (%) at 5 mg/kg (Haemonchus contortus; [7]) | Effectiveness at 15 mg/kg against Haemonchus (Haemonchus contortus; sheep, 15 mg/kg) | effective in killing or expelling Haemonchus (Haemonchus contortus; sheep) | Haemonchus (2 mg/kg), percent of parasites destroyed or expelled (Haemonchus contortus; sheep) | Haemonchus (15 mg/kg), percent of parasites destroyed or expelled (Haemonchus contortus; sheep, 15 mg/kg) | inhibition in vivo at 1 mg/kg (Fasciola hepatica; [9]) | inhibition in vivo at 2 mg/kg (Fasciola hepatica; [10]) | NOAEL [1] | Tolerance (sheep; 50 mg./kg., Tables VIII-X) | Tolerance at 50 mg/kg (sheep) | Tolerance (sheep; 100 mg./kg., Tables VIII, IX) | Tolerance at 100 mg/kg (sheep) | effect against (mature) liver flukes [2] | inhibition in vivo at 15 mg/kg (Haemonchus contortus; [11]) | inhibition in vivo at 5 mg/kg (Fasciola hepatica; [12]) | Tolerance (sheep; 25 mg./kg., Tables IX, X) | inhibition in vivo at 15 mg/kg (Fasciola hepatica; [13]) | also measured
1 | Cc1c([N+](=O)[O-])cc(C(C)(C)C)c(O)c1C(=O)Nc1ccc(Cl)cc1Cl [Example 5, 3-tert. butyl-2', 4'-dichloro-6-methyl-5-nitrosalicylanilide] | 100% | 14% | 100% | 100% | 100% | 100% | 14% | 100% | 44% | 99% | 50 to 100 mg/kg | Tol. | nontoxic | Sym. | toxic | completely destroyed all flukes |  |  |  |  | inhibition in vivo at 15 mg/kg (Haemonchus contortus; Haemonchus contortus, read-out: Haemonchus, percentage of microorganism killed, sheep, 15 mg/kg, Tables VIII-XI): 100%; activity at 5 mg./kg. (Haemonchus contortus; sheep, 5 mg/kg): 100%; inhibition in vivo at 5 mg/kg (Fasciola hepatica; [8]): 100%; dose ratio: times less than the dose at which the 2',5' dichloro compound had no activity (Fasciola) (Fasciola hepatica; sheep): 2.5 times; effective against Fasciola (Fasciola hepatica; sheep, dose 2.5 times less than that at which the 2',5' dichloro compound had no activity): 99%; dual activity against both Haemonchus and Fasciola ([3]; 5 mg./kg.): 100%
2 | Cc1cc(Cl)ccc1NC(=O)c1c(C)c([N+](=O)[O-])cc(C(C)(C)C)c1O [Example 6, 3-tert. butyl-4'-chloro-2', 6-dimethyl-5-nitrosalicylanilide] | 100% | 67% |  | 95% | 100% | 100% | 67% | 100% |  |  | 50 to 100 mg/kg | Sym. | non toxic | Tox. | toxic | The same effects against mature flukes | 100% | 100% | Tol. |  | inhibition in vivo at 5 mg/kg (Haemonchus contortus; Haemonchus contortus, read-out: Haemonchus, percentage of microorganism killed, sheep, 5 mg/kg, Tables VIII-XI): 99%; activity against Haemonchus relative to other isomers, in words (Haemonchus contortus; sheep): greater activity against Haemonchus; inhibition in vivo at 2 mg/kg (Fasciola hepatica; [8]): 0%; dual activity relative to other isomers, in words ([3]; chloro 4' compound): much greater dual activity; dual activity relative to other isomers, in words ([3]; chloro 4' isomer): very active at doses well below those at which other isomers are inactive
3 | Cc1c([N+](=O)[O-])cc(C(C)(C)C)c(O)c1C(=O)Nc1ccc(C(F)(F)F)cc1 [Example 10, 3-tert. butyl-6-methyl-5-nitro-4'-trifluoromethylsalicylanilide] |  |  |  |  |  |  |  | 100% |  |  | 15 to 50 mg/kg |  |  |  |  |  | 100% |  |  | 100% | inhibition in vivo at 15 mg/kg (Haemonchus contortus; Haemonchus contortus, sheep, 15 mg/kg, Table V, read-out: Effectiveness at 15 mg/kg against Haemonchus): 100%; effect against liver flukes [2]: efficacious
4 | Cc1c([N+](=O)[O-])cc(C(C)(C)C)c(O)c1C(=O)Nc1ccc(Br)cc1C(F)(F)F [Example 11] |  | 99.8% | 100% |  |  |  | 99.8% |  | 100% | 100% | ≥ 20 mg/kg |  |  |  |  |  |  | 100% |  |  | Haemonchus (5 mg/kg), percent of parasites destroyed or expelled (Haemonchus contortus; sheep, 5 mg/kg): 100%; inhibition in vivo at 0.5 mg/kg (Fasciola hepatica; Fasciola hepatica, sheep, 0.5 mg/kg, Table X, read-out: Fasciola hepatica, percentage of microorganism killed): 97%; Tolerance (sheep; 20 mg./kg., Table X): Tol.; Tolerance (sheep; 35 mg./kg., Table X): Tol.; Tolerance, highest test dosage at which the sheep developed no toxic symptoms (sheep; Table 1, listed as 12): ≥ 35 mg/kg; overall activity ranking, in words [3]: most active compounds of the invention
5 | Cc1c([N+](=O)[O-])cc(C(C)(C)C)c(O)c1C(=O)Nc1ccc(Cl)cc1C(F)(F)F [Example 13] |  | 96% | 91% |  |  |  | 96% | 100% | 100% | 100% | ≥ 15 mg/kg | Tox. |  |  |  |  | 100% |  | Tox. |  | inhibition in vivo at 1 mg/kg (Haemonchus contortus; Haemonchus contortus, sheep, 1 mg/kg, Table X, read-out: Haemonchus, percentage of microorganism killed): 76%; Haemonchus (5 mg/kg), percent of parasites destroyed or expelled (Haemonchus contortus; sheep, 5 mg/kg): 91%; Tolerance (sheep; 15 mg./kg., Tables VIII, X): Tol.; overall activity ranking, in words [3]: most active compounds of the invention
6 | Cc1c(Cl)cccc1NC(=O)c1c(C)c([N+](=O)[O-])cc(C(C)(C)C)c1O [Example 28, 3-tert. butyl-3'-chloro 2', 6-dimethyl-5-nitrosalicylanilide] | 87% |  |  |  |  |  |  |  |  |  |  | Tox. | toxic |  |  |  | 87% |  |  | 0% | effect against liver flukes [2]: ineffective against liver flukes
